Results from patent publication EP1100453B1, “COSMETIC FORMULATION CONTAINING ECTOINE DERIVATIVES, ENZYMES, VITAMINS AND/OR VITAMIN DERIVATIVES” (MERCK PATENT GmbH, priority 1998, dated 2000).
Where two headings read alike, the source gives them in different places.

Legend:
Format in all cases: biochemical
Katalase = molecular target: T1, Katalase (Homo sapiens, UniProt P04040); test: Enzyme stabilisation by Ectoin against temperature stress in vitro: catalase activity; details: for activation at 1 M: 0.5 h, read-out: Aktivität
T1 sequence (P04040 1-527): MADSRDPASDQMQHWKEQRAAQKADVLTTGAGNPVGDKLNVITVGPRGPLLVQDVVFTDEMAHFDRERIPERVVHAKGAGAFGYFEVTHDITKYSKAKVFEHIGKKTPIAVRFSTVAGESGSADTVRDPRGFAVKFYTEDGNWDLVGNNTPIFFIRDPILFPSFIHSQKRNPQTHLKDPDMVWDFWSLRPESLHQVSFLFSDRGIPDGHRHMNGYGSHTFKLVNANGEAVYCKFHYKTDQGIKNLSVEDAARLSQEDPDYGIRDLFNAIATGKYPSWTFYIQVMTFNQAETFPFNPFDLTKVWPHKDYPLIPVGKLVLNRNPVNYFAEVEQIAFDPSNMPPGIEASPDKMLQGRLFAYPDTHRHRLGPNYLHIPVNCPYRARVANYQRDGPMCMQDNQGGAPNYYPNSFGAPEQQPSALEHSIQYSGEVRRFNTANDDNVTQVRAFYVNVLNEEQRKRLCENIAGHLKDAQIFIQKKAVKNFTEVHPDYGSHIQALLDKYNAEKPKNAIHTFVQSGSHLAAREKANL
From the text: (§1) Das Grundmedium für die Inkubation ist eine 0,25 molare Tris-HCl-Pufferlösung mit einem pH-Wert von 6,8.
(§2) Die Bestimmung der Enzymaktivität erfolgt • für Katalase nach der Methode von A. Claiborne [A. Claiborne 'Catalase Activity' in: R.A. Greenwald (Ed.), Handbook of Methods for Oxygen Radical Research, CRC Press, Boca Raton, FL. (1986) 283-284], • für Glutathionperoxidase nach der Methode von L. Flohé und W.A. Günzler [L. Flohé et al., Methods Enzymol. 105 (1989) 114-121], • für Superoxiddismutase nach der Methode von H.P. Nissen und H.W. Kreysel [H.W. Kreysel et al., 'Superoxide Dismutase in Human Semen, Klin. Wochenschr. 61 (1983) 63-65] und • für Elastase nach der Methode von L. Hornebeck und W. Hornebeck [W. Hornebeck et al., 'Characterisation of Human Skin Fibroblasts Elastase Activity', J. Invest. Dermatol. 91 (5) (1988) 472-477].
(§3) Die Ergebnisse sind für Katalase in Abb. 1, für Glutathionperoxidase in Abb. 2, für Superoxiddimutase in Abb. 3 und für Elastase in Abb. 4 dargestellt.

Superoxiddismutase = test: Enzyme stabilisation by Ectoin against temperature stress in vitro: superoxide dismutase activity; details: 30 min incubation, Ectoin 1 mol/l, enzyme 0,05 mg/ml, Tris-HCl pH 6,8, difference to enzyme without Ectoin (set to 100 %)
From the text: as §1, §2, §3

Glutathionperoxidase = test: Enzyme stabilisation by Ectoin against temperature stress in vitro: glutathione peroxidase activity; details: 30 min incubation, Ectoin 1 mol/l, enzyme 0,05 mg/ml, Tris-HCl pH 6,8, difference to enzyme without Ectoin (set to 100 %)
From the text: as §1, §2, §3

Elastase = test: Enzyme stabilisation by Ectoin against temperature stress in vitro: elastase activity; details: 30 min incubation, Ectoin 1 mol/l, enzyme 0,05 mg/ml, Tris-HCl pH 6,8, difference to enzyme without Ectoin (set to 100 %)
From the text: as §1, §2, §3

## CC1=N[C@H](C(=O)O)CCN1 [Ectoin, (S)-1,4,5,6-Tetrahydro-2-methyl-4-pyrimidincarbonsäure]
Katalase; 50 °C incubation, ratio of activity with Ectoin to activity without Ectoin
  Aktivität von mit Ectoin behandelter Katalase relativ zu nicht mit Ectoin behandelter Katalase: mehr als doppelt so aktiv
Katalase; 50 °C, 30 min incubation, Ectoin 1 mol/l, enzyme 0,05 mg/ml, Tris-HCl pH 6,8, difference to enzyme without Ectoin (set to 100 %)
  Aktivität: 117,9%
Katalase; pH 6, 20 °C, 30 min incubation, Ectoin 1 mol/l, enzyme 0,05 mg/ml, Tris-HCl pH 6,8, difference to enzyme without Ectoin (set to 100 %)
  activation at 1 M: 2.5%
Katalase; pH 6, 30 °C, 30 min incubation, Ectoin 1 mol/l, enzyme 0,05 mg/ml, Tris-HCl pH 6,8, difference to enzyme without Ectoin (set to 100 %)
  activation at 1 M: 10.4%
Katalase; pH 6, 40 °C, 30 min incubation, Ectoin 1 mol/l, enzyme 0,05 mg/ml, Tris-HCl pH 6,8, difference to enzyme without Ectoin (set to 100 %)
  activation at 1 M: ~25%
Katalase; pH 6, 50 °C, 30 min incubation, Ectoin 1 mol/l, enzyme 0,05 mg/ml, Tris-HCl pH 6,8, difference to enzyme without Ectoin (set to 100 %)
  activation at 1 M: ~120%
Superoxiddismutase; 20 °C
  Aktivität: 4,9%
Superoxiddismutase; 40 °C
  Aktivität: 14,4%
Superoxiddismutase; 50 °C
  Aktivität: 17,4%
Glutathionperoxidase; 20 °C
  Aktivität: 3,5%
Glutathionperoxidase; 30 °C
  Aktivität: 1,4%
Glutathionperoxidase; 40 °C
  Aktivität: 20,8%
Glutathionperoxidase; 50 °C
  Aktivität: 39,6%
Elastase; 30 °C
  Aktivität: 4,0%
Elastase; 40 °C
  Aktivität: 15,0%
Elastase; 50 °C
  Aktivität: 25,7%
